Assays:
Type in all cases: cell-based, Human
MUC1 C-ter [1] = assay: Mitochondrial localization of MUC1 C-ter in HCT116/MUC1 cells (immunoblot of mitochondrial fractions)
Procedure: (§1) Cell culture. Human HCT116 colon carcinoma cells (ATCC, Manassas, Va.) were cultured in Dulbecco's modified Eagle's medium/F12 with 10% heat-inactivated fetal bovine serum, 100 units/ml penicillin, […] streptomycin and 2 mM L-glutamine. Cells were treated with EGF (10 ng/ml; Calbiochem-Novabiochem, San Diego, Calif.), HRG (20 ng/ml; Calbiochem-Novabiochem), cisplatin (CDDP; Sigma), etoposide (Sigma), rhTNF-a (Promega, Madison, Wis.), CHX (Sigma) or rhTRAIL (100 ng/ml; Calbiochem-Novabiochem).
(§2) Immunoblot analysis. Lysates were prepared from subconfluent cells as described (Li et al., 2001a). Equal amounts of protein were separated by SDS-PAGE and transferred to nitrocellulose membranes. […] The immunocomplexes were detected with horseradish peroxidase-conjugated secondary antibodies and enhanced chemiluminescence (ECL, Amersham Biosciences, Piscataway, N.J.). Intensity of the signals was determined by densitometric scanning. […]

MUC1(Y46F) C-ter = assay: Mitochondrial localization of MUC1(Y46F) C-ter in HCT116/MUC1(Y46F) cells (immunoblot of mitochondrial fractions)
Procedure: as §1, §2

MUC1 C-ter [2] = assay: Expression of MUC1 C-ter after CHX; settings: CHX treatment
Procedure: Immunoblot analysis. Lysates were prepared from subconfluent cells as described (Li et al., 2001a). Equal amounts of protein were separated by SDS-PAGE and transferred to nitrocellulose membranes. […] The immunocomplexes were detected with horseradish peroxidase-conjugated secondary antibodies and enhanced chemiluminescence (ECL, Amersham Biosciences, Piscataway, N.J.). Intensity of the signals was determined by densitometric scanning.
Methods. Apoptotic cells were quantified by analysis of sub-G1 DNA and TUNEL staining. […] DNA content was analyzed by flow cytometry (EPICS XL-MCL, Coulter Corp.). Apoptotic cells with DNA fragmentation were detected by staining with the In Situ cell death detection kit (TUNEL; Roche Applied Science) and visualized by confocal microscopy (ZEISS LSM510). After staining, cells were analyzed by flow cytometry. […]

HCT116/vector cells [3] = assay: Apoptosis by analysis of sub-G1 DNA, HCT116/vector cells
Procedure: Methods. Apoptotic cells were quantified by analysis of sub-G1 DNA and TUNEL staining. To assess sub-G1 DNA content, cells were harvested, washed with PBS, fixed with 80% ethanol, and incubated in PBS containing 20 ng/ml RNase (Roche) for 60 min at 37° C. Cells were then stained with […] propidium iodide (Sigma) for 30 min at room temperature in the dark. DNA content was analyzed by flow cytometry (EPICS XL-MCL, Coulter Corp.). Apoptotic cells with DNA fragmentation were detected by staining with the In Situ cell death detection kit (TUNEL; Roche Applied Science) and visualized by confocal microscopy (ZEISS LSM510). After staining, cells were analyzed by flow cytometry. Other experimental procedures and methods were as described in Example 1.

HCT116/vector cells [4] = assay: Cell death after CDDP treatment, HCT116/vector cells; settings: CDDP for 72 h
Procedure: as §1
(§3) Methods. Experimental procedures and methods were as described in Example 1.

HCT116/MUC1(Y46F) cells = assay: Cell death after CDDP treatment, HCT116/MUC1(Y46F) cells; settings: CDDP for 72 h
Procedure: as §1, §3

HCT116/MUC1 cells = assay: Cell death after CDDP treatment, HCT116/MUC1 cells; settings: CDDP for 72 h, cessation of cell growth
Procedure: as §1, §3

cytochrome c = assay: Release of mitochondrial cytochrome c to the cytosol (immunoblot), HCT116/vector cells; settings: HCT116/vector cells treated with CDDP
Procedure: as §1, §2

## EGF: EGF (10 ng/ml; Calbiochem-Novabiochem) (NSDSECPLSHDGYCLHDGVCMYIEALDKYACNCVVGYIGERCQYRDLKWWELR; Epidermal growth factor; UniProt P01133 971-1023, looked up)
MUC1 C-ter [1]; EGF 10 ng/ml
  effect on mitochondrial targeting of MUC1 C-ter: little effect
MUC1(Y46F) C-ter; EGF 10 ng/ml
  effect on mitochondrial targeting of MUC1 C-ter: little effect

## C[C@@H]1C[C@@H]([C@H](O)CC2CC(=O)NC(=O)C2)C(=O)[C@@H](C)C1 [CHX, cycloheximide]
MUC1 C-ter [2]
  effect on expression of MUC1 C-ter: no apparent effect

## TNF-α
HCT116/vector cells [3]; 20 ng/ml TNF-α in the presence of 10 ng/ml cycloheximide (CHX), 12 hr
  induction of apoptosis: associated with induction of HCT116/vector cell apoptosis
HCT116/vector cells [3]; TNF-α alone
  induction of apoptosis: failed to induce apoptosis

## [NH2][Pt]([NH2])([Cl])[Cl] [CDDP, cisplatin]
HCT116/vector cells [4]
  cell death: > 90%
HCT116/MUC1(Y46F) cells
  cell death: > 90%
HCT116/MUC1 cells
  cell death: < 30%
HCT116/vector cells [3]; 100 μM CDDP for 24 h
  apoptosis (sub-G1 DNA): approximately 40%
Cytochrome c
  levels of cytosolic cytochrome c: increased levels of cytosolic cytochrome c

## heregulin [HRG]
MUC1 C-ter [1]; HRG 20 ng/ml, 0.5 h, persisted through 3 h
  increase in localization of MUC1 C-ter to mitochondria: 2.3 fold
MUC1(Y46F) C-ter; HRG 20 ng/ml
  effect on mitochondrial localization of MUC1(Y46F) C-ter: little effect
